{"source": "patent US6288111A", "about": "(Research Development Foundation, priority 1995, dated 2001)", "key": {"[1]": {"details": "human, in vivo", "text": "(§1) Entry requirements included histologically documented melanoma, measurable disease, signed informed consent, and no anti-tumor therapy during the previous 4 weeks. Patients were required to have normal hematologic and renal function, an Eastern Cooperative Oncology Group (ECOG) performance status of 0-2 and an estimated survival of at least 3 months. Patients with a previous history of deep venous thrombosis or pulmonary embolism were excluded.\n(§2) Pre-treatment hydration consisted of 1 liter of 5% dextrose/0.45%saline containing 20 mEq of potassium chloride and 2 g magnesium sulfate administered over 4 hours. […] Patients were retreated every 3 weeks. On cycles where TAM was administered, 40 mg p.o. four doses per day were given on day 1 followed by 20 mg p.o. daily thereafter."}, "[2]": {"test_system": "melanoma", "experiment": "Clinical trial: response of melanoma patients to DDP alone, then TAM/DDP", "format": "in vivo, human", "excerpt": "A complete response was defined as the complete disappearance of all evidence of disease for at least 4 weeks. A partial response was a decrease in the mean diameter of the target lesion by 50% or more lasting at least 4 weeks. A mixed response was a decrease in the diameter of some target lesions of 50% or more while others remained stable or increased in size.\nPatients were retreated every 3 weeks. […] Subsequent patients received an ondansetron-based regimen."}, "[3]": {"test_system": "T-289 human melanoma cells", "experiment": "Development of DDP resistance in T-289 cells (selection with DDP ± TAM, colony formation assay)", "format": "cell-based"}, "[4]": {"test_system": "melanoma", "details": "203 treated melanoma patients; cited from earlier work"}, "[5]": {"details": "read-out: Steady-state plasma concentration; chronic administration, 10 mg p.o. twice a day; cited from earlier work"}, "[6]": {"experiment": "Plasma concentrations of TAM in patients", "details": "predicted from in vitro data"}, "[7]": {"experiment": "Clinical trial: toxicities with DDP or DDP/TAM treatment", "details": "in words", "text": "as §1, §2"}, "[8]": {"details": "DDP alone: 24 patients, TAM/DDP: 20 patients (19 evaluated), after DDP alone"}, "[9]": {"details": "DDP alone: 24 patients, TAM/DDP: 20 patients, after DDP alone"}, "[10]": {"details": "of the 19 patients evaluated for TAM/DDP"}}, "note": "Like-named read-outs stand apart in the source and are kept apart here.", "data": [{"smiles": "Cc1nccn1CC1CCc2c(c3ccccc3n2C)C1=O", "note": "(stereo not drawn) [ondonsetron]", "values": [{"measurement": "Nausea or vomiting", "setting": "[1]", "result": "markedly reduced nausea and vomiting during hospitalization"}]}, {"smiles": "N.N.[Cl][Pt][Cl]", "note": "[DDP, cis-diamminedichloroplatinum (II)]", "values": [{"measurement": "Duration of complete response", "setting": "[2]; DDP alone, one patient", "result": "more than 15 months"}, {"measurement": "Stable off treatment after partial response", "setting": "[2]; DDP alone, one patient", "result": "≥ 6", "unit": "months"}, {"measurement": "Time to progression after partial response", "setting": "[2]; DDP alone, one patient", "result": 4, "unit": "months"}, {"measurement": "Complete Response (%)", "setting": "[2]; DDP alone: 24 patients", "result": 4, "unit": "%"}, {"measurement": "Progressive Disease (number of patients)", "setting": "[2]; DDP alone: 24 patients (two refused DDP/TAM), TAM/DDP: 20 patients", "result": 19, "unit": "patients"}, {"measurement": "Stable Disease (number of patients)", "setting": "[2]; DDP alone: 24 patients, TAM/DDP: 20 patients", "result": 2, "unit": "patients"}, {"measurement": "Mixed Response (number of patients)", "setting": "[2]; [8]", "result": 0, "unit": "patients"}, {"measurement": "Partial Response (number of patients)", "setting": "[2]; [8]", "result": 2, "unit": "patients"}, {"measurement": "Complete Response (number of patients)", "setting": "[2]; [9]", "result": "One"}, {"measurement": "Partial Response (%)", "setting": "[2]; [9]", "result": 8, "unit": "%"}, {"measurement": "Complete Response (number of patients)", "setting": "[2]; DDP alone: 24 patients, TAM/DDP: 20 patients, after DDP alone, listed as Cisplatin", "result": 1, "unit": "patients"}, {"measurement": "Progressive disease while receiving single agent DDP (number of patients)", "setting": "[2]; [10]", "result": 17, "unit": "patients"}, {"measurement": "Stable disease while receiving single agent DDP (number of patients)", "setting": "[2]; [10]", "result": 2, "unit": "patients"}, {"measurement": "Time at which DDP resistance became apparent", "setting": "[3]; T-289, selection", "result": 200, "unit": "days"}, {"measurement": "Rate of emergence of DDP resistance, DDP alone compared with DDP and TAM", "setting": "[3]; T-289, p<0.01", "result": 2.75, "unit": "fold"}]}, {"smiles": "CC/C(=C(\\c1ccccc1)c1ccc(OCCN(C)C)cc1)c1ccccc1", "note": "[TAM, tamoxifen]", "values": [{"measurement": "Response rate, single agent TAM", "setting": "[4]", "result": 6, "unit": "%"}, {"measurement": "Outcome of treatment in words", "setting": "[2]; TAM and DDP in patients resistant to single agent DDP", "result": "can overcome established resistance to DDP in a significant fraction of patients with malignant melanoma"}, {"measurement": "concentration", "setting": "[5]", "result": "~290", "unit": "nM"}, {"measurement": "Plasma concentration predicted to be necessary in DDP resistant patients", "setting": "[6]", "result": "more than 1.0 μM"}, {"measurement": "Effect on development of DDP resistance", "setting": "[3]; T-289, concurrent DDP and TAM, in words", "result": "can delay the development of DDP resistance"}, {"measurement": "Nephrotoxicity", "setting": "[7]", "result": "nephrotoxicity was uncommon and unaffected by the administration of TAM"}, {"measurement": "Overall toxicity / tolerability", "setting": "[7]", "result": "No increased toxicity was noted with the addition of TAM to single agent DDP"}, {"measurement": "Nausea or vomiting", "setting": "[7]; during hospitalization for ondonsetron", "result": "did not increase nausea or vomiting"}]}]}
